Source: PubChem BioAssay (NCI)
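Tested at 5 concentrations; 48 h exposure; 96-well plates; endpoints linearly interpolated, else capped at highest concentration. GI50: concentration for 50% inhibition of growth. TGI: total growth inhibition.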

What was measured:
Test in all cases: NCI anticancer screen, dose series, 48 h
NCI-H23 lung = tested on: NCI-H23 lung
NCI-H522 lung = tested on: NCI-H522 lung
RPMI-8226 leukemia = tested on: RPMI-8226 leukemia
UO-31 renal = tested on: UO-31 renal
T-47D breast = tested on: T-47D breast
HOP-92 NSCLC = tested on: HOP-92 NSCLC
LOX IMVI melanoma = tested on: LOX IMVI melanoma
SK-MEL-28 melanoma = tested on: SK-MEL-28 melanoma
786-0 renal = tested on: 786-0 renal
M14 melanoma = tested on: M14 melanoma
K-562 leukemia = tested on: K-562 leukemia
SNB-75 CNS = tested on: SNB-75 CNS
NCI/ADR-RES ovarian = tested on: NCI/ADR-RES ovarian
HCT-116 colon = tested on: HCT-116 colon
HCC-2998 colon = tested on: HCC-2998 colon
MALME-3M melanoma = tested on: MALME-3M melanoma
UACC-257 melanoma = tested on: UACC-257 melanoma
BT-549 breast = tested on: BT-549 breast
NCI-H460 lung = tested on: NCI-H460 lung
SK-OV-3 ovarian = tested on: SK-OV-3 ovarian
HT29 colon = tested on: HT29 colon
KM12 colon = tested on: KM12 colon
CAKI-1 renal = tested on: CAKI-1 renal
CCRF-CEM leukemia = tested on: CCRF-CEM leukemia
PC-3 prostate = tested on: PC-3 prostate
HCT-15 colon = tested on: HCT-15 colon
MCF7 breast = tested on: MCF7 breast
SF-268 CNS = tested on: SF-268 CNS
OVCAR-5 ovarian = tested on: OVCAR-5 ovarian
COLO 205 colon = tested on: COLO 205 colon
SK-MEL-5 melanoma = tested on: SK-MEL-5 melanoma
SK-MEL-2 melanoma = tested on: SK-MEL-2 melanoma
MDA-MB-231 breast = tested on: MDA-MB-231 breast
OVCAR-4 ovarian = tested on: OVCAR-4 ovarian
HS 578T breast = tested on: HS 578T breast
TK-10 renal = tested on: TK-10 renal
A498 renal = tested on: A498 renal
SW-620 colon = tested on: SW-620 colon
MOLT-4 leukemia = tested on: MOLT-4 leukemia
A549 NSCLC = tested on: A549 NSCLC
HL-60(TB) leukemia = tested on: HL-60(TB) leukemia
SNB-19 CNS = tested on: SNB-19 CNS
DU-145 prostate = tested on: DU-145 prostate
IGROV1 ovarian = tested on: IGROV1 ovarian
UACC-62 melanoma = tested on: UACC-62 melanoma
EKVX NSCLC = tested on: EKVX NSCLC
SF-539 CNS = tested on: SF-539 CNS
RXF 393 renal = tested on: RXF 393 renal
SN12C renal = tested on: SN12C renal
OVCAR-8 ovarian = tested on: OVCAR-8 ovarian
SF-295 CNS = tested on: SF-295 CNS
U251 CNS = tested on: U251 CNS
NCI-H226 lung = tested on: NCI-H226 lung
ACHN renal = tested on: ACHN renal
HOP-62 NSCLC = tested on: HOP-62 NSCLC
SR leukemia = tested on: SR leukemia
MDA-MB-435 = tested on: MDA-MB-435

CC(Nc1c(C#N)cnc2ccc(-c3cnc(N)nc3)cc12)c1ccccc1 (stereo not drawn)
GI50 (NCI-H23 lung): 1700 nM
TGI (NCI-H23 lung): 11 µM
GI50 (NCI-H522 lung): 2200 nM
TGI (NCI-H522 lung): 10.5 µM
GI50 (RPMI-8226 leukemia): 382 nM
TGI (RPMI-8226 leukemia): 2960 nM
GI50 (UO-31 renal): 252 nM
TGI (UO-31 renal): 5.84 µM
GI50 (T-47D breast): 446 nM
GI50 (HOP-92 NSCLC): 138 nM
TGI (HOP-92 NSCLC): 827 nM
GI50 (LOX IMVI melanoma): 915 nM
TGI (LOX IMVI melanoma): 5.85 µM
GI50 (SK-MEL-28 melanoma): 1590 nM
TGI (SK-MEL-28 melanoma): 8.97 µM
GI50 (786-0 renal): 1360 nM
TGI (786-0 renal): 10.2 µM
GI50 (M14 melanoma): 1560 nM
TGI (M14 melanoma): 11.2 µM
GI50 (K-562 leukemia): 2160 nM
TGI (K-562 leukemia): > 100 µM
GI50 (SNB-75 CNS): 258 nM
TGI (SNB-75 CNS): 2450 nM
GI50 (NCI/ADR-RES ovarian): 2340 nM
TGI (NCI/ADR-RES ovarian): 28.3 µM
GI50 (HCT-116 colon): 1710 nM
TGI (HCT-116 colon): 5.93 µM
GI50 (HCC-2998 colon): 2000 nM
TGI (HCC-2998 colon): 13.6 µM
GI50 (MALME-3M melanoma): 527 nM
TGI (MALME-3M melanoma): 3.79 µM
GI50 (UACC-257 melanoma): 2110 nM
TGI (UACC-257 melanoma): 10.5 µM
GI50 (BT-549 breast): 410 nM
TGI (BT-549 breast): 4.51 µM
GI50 (NCI-H460 lung): 987 nM
TGI (NCI-H460 lung): 11.6 µM
GI50 (SK-OV-3 ovarian): 1210 nM
TGI (SK-OV-3 ovarian): 5.72 µM
GI50 (HT29 colon): 1630 nM
TGI (HT29 colon): 13.9 µM
GI50 (KM12 colon): 1750 nM
TGI (KM12 colon): 8.64 µM
GI50 (CAKI-1 renal): 441 nM
TGI (CAKI-1 renal): 4.28 µM
GI50 (CCRF-CEM leukemia): 1000 nM
TGI (CCRF-CEM leukemia): 40.2 µM
GI50 (PC-3 prostate): 720 nM
TGI (PC-3 prostate): 10.6 µM
GI50 (HCT-15 colon): 1240 nM
TGI (HCT-15 colon): > 38.6 µM
GI50 (MCF7 breast): 640 nM
TGI (MCF7 breast): > 35.3 µM
GI50 (SF-268 CNS): 1240 nM
TGI (SF-268 CNS): 8.79 µM
GI50 (OVCAR-5 ovarian): 787 nM
TGI (OVCAR-5 ovarian): 13.6 µM
GI50 (COLO 205 colon): 1780 nM
TGI (COLO 205 colon): 6.82 µM
GI50 (SK-MEL-5 melanoma): 1520 nM
TGI (SK-MEL-5 melanoma): 3.09 µM
GI50 (SK-MEL-2 melanoma): 1120 nM
TGI (SK-MEL-2 melanoma): 2950 nM
GI50 (MDA-MB-231 breast): 850 nM
TGI (MDA-MB-231 breast): 16.8 µM
GI50 (OVCAR-4 ovarian): 527 nM
TGI (OVCAR-4 ovarian): 4.76 µM
GI50 (HS 578T breast): 422 nM
TGI (HS 578T breast): 2840 nM
GI50 (TK-10 renal): 206 nM
TGI (TK-10 renal): 1860 nM
GI50 (A498 renal): 199 nM
TGI (A498 renal): 1040 nM
GI50 (SW-620 colon): 2620 nM
TGI (SW-620 colon): 12.2 µM
GI50 (MOLT-4 leukemia): 870 nM
TGI (MOLT-4 leukemia): 6.14 µM
GI50 (A549 NSCLC): 1030 nM
TGI (A549 NSCLC): 11.7 µM
GI50 (HL-60(TB) leukemia): 2460 nM
TGI (HL-60(TB) leukemia): > 39.5 µM
GI50 (SNB-19 CNS): 1590 nM
TGI (SNB-19 CNS): 20 µM
GI50 (DU-145 prostate): 796 nM
TGI (DU-145 prostate): 13.3 µM
GI50 (IGROV1 ovarian): 374 nM
TGI (IGROV1 ovarian): 2400 nM
GI50 (UACC-62 melanoma): 1080 nM
TGI (UACC-62 melanoma): 4.53 µM
GI50 (EKVX NSCLC): 857 nM
TGI (EKVX NSCLC): > 23.8 µM
GI50 (SF-539 CNS): 1310 nM
TGI (SF-539 CNS): 5.98 µM
GI50 (RXF 393 renal): 559 nM
TGI (RXF 393 renal): 3.9 µM
GI50 (SN12C renal): 765 nM
TGI (SN12C renal): 14.8 µM
GI50 (OVCAR-8 ovarian): 1720 nM
TGI (OVCAR-8 ovarian): 11.6 µM
GI50 (SF-295 CNS): 1080 nM
TGI (SF-295 CNS): > 23.1 µM
GI50 (U251 CNS): 1550 nM
TGI (U251 CNS): 11.2 µM
GI50 (NCI-H226 lung): 1530 nM
TGI (NCI-H226 lung): 16.6 µM
GI50 (ACHN renal): 785 nM
TGI (ACHN renal): 13.2 µM
GI50 (HOP-62 NSCLC): 1090 nM
TGI (HOP-62 NSCLC): 9.82 µM
GI50 (SR leukemia): 741 nM
TGI (SR leukemia): > 43.4 µM
GI50 (MDA-MB-435): 1670 nM
TGI (MDA-MB-435): 9.57 µM
